According to patent EP0381374A1, “Phosphodiesterase inhibitors” (LES LABORATOIRES BEECHAM S.A., priority 1989, dated 1990):

Tests used:
[1] = system: Canine cardiac myofibrillar Ca⁺⁺-dependent Mg⁺⁺ ATPase; assay: Measurement of myofibrillar Ca++-dependent Mg++-ATPase activity; type: biochemical; settings: Concentration: 3 x 10⁻⁵ molar; for Shift in pCa50 (ΔpCa50): shift of the pCa giving 50% of the maximal control ATPase activity, 21°C, pH 7.0; for Max ATPase activity(%): percent change of ATPase activity for pCa = 5.47
Protocol: 1. Measurement of myofibrillar Ca++-dependent Mg++-ATPase activity
The effect on Ca++sensitivity and on maximal activity of myofibrillar Ca++-dependent Mg++-ATPase was determined on canine cardiac myofibrils.
(a) Contractile protein preparation
Cardiac myofibrils free of membrane contaminants were prepared from left ventricular tissue of dog hearts using a modification of the method described by SOLARO et al, Biochem. Biophys. Acta, 245, 259-262, (1971). Before centrifugation, the heart homogenate was filtered through gauze.
After Triton X-100 treatments, the myofibrillar fraction was washed once by resuspension and centrifugation in 10 volumes of 1 mM EGTA, […] KCl, 30 mM imidazole, 2 mM MgCl₂, pH 7.0. The pellet was then washed three times in 10 volumes of the same buffer without EGTA. Before the last centrifugation, the suspension of myofibrils was filtered through a stainless steel sieve with 0.25 mm meshes.
Myofibrils were kept in pellet overnight. Before use, the pellet was suspended in a small amount of buffer, the protein concentration was determined by the method of BRADFORD M., Anal. Biochem., 1976, 72, 248 and adjusted in order to have a concentration between 6 and 7mg/ml, using gamma globuline as standard.
(b) Myofibrillar ATPase activity
Ca++-dependent myfibrillar ATPase activity was determined at 21 °C, pH 7.0, by measuring the rate of release of inorganic phosphate. All assays were performed within 24hrs. of final purification, using the method described by SOLARO and RUEGG, CIRC. RES., 51, 290-4,(1982). Reaction mixtures (4ml) containing 0.6 - 0.7 mg/ml myofibrillar protein, 80mM KCl, 20 mM imidazole, 3 mM MgCl₂, 1 mM EGTA, the desired amount of CaCl₂, and the indicated concentration of drug or appropriate vehicle were preincubated for 6 min. prior to assay. The amount of CaCl₂ was varied between 0 and 0.9 mM and the pca (-log free Ca++) computed using 2.514 x 10⁶ M⁻¹ as the apparent affinity of Ca++ for EGTA at pH 7.0.
Reactions were initiated by the addition of Na₂ATP to final concentration of 2 mM. After an incubation period of 12 min., reactions were quenched by the addition of an equal volume of ice-cold 10% trichloroacetic acid. The protein was pelleted by centrifugation (2000g, 15 min.) and Pi was assayed in the supernatant fraction using a modification of the method described by LANZETTA et al, Anal. Biochem., 100, 95-97, (1979).
The following solutions were prepared: • (1) 3.7% ammonium heptamolybdate in 0.12 N H₂SO₄ • (2) 0.074% malachite green oxalate in 1% polyvinylic alcohol.
The colour reagent was prepared by mixing an equal volume of solution (1) and (2) 15 min. before the assay. For the assay, 1700 µl of 1% H₂SO₄ and 1 ml of colour reagent were added to 100 µl of sample. Colour development occurred at room temperature for 30 min. and was quenched by the addition of 200 µl of 1 M tri-potassium citrate. The absorbance was measured at 620 millimicrons.
The effect of each compound, tested at the indicated concentration, on the relation between pCa and percent activation was determined taking 100% for the maximum ATPase activity obtained with vehicle alone. The effect on Ca++ sensitivity was quantified by measuring the shift of the pCa giving 50% of the maximal control ATPase activity.
The effect on maximal ATPase activity was expressed as the percent change of ATPase activity for pCa = 5.47.

[2] = target: T1, CGI-PDE (i.e., c-GMP-inhibited PDE) (Canis lupus familiaris, UniProt A0A8I3NYE0); assay: Inhibition of cardiac phosphodiesterases, Fraction IV (CGI-PDE); type: biochemical; settings: canine left ventricle PDE Fraction IV
T1 construct: isoforms of canine left ventricle were separated by column ion exchange chromatography; from tissue; host or cells: canine left ventricle, Fractogel TSK DEAE 650 fraction IV
T1 sequence (A0A8I3NYE0 1-1135): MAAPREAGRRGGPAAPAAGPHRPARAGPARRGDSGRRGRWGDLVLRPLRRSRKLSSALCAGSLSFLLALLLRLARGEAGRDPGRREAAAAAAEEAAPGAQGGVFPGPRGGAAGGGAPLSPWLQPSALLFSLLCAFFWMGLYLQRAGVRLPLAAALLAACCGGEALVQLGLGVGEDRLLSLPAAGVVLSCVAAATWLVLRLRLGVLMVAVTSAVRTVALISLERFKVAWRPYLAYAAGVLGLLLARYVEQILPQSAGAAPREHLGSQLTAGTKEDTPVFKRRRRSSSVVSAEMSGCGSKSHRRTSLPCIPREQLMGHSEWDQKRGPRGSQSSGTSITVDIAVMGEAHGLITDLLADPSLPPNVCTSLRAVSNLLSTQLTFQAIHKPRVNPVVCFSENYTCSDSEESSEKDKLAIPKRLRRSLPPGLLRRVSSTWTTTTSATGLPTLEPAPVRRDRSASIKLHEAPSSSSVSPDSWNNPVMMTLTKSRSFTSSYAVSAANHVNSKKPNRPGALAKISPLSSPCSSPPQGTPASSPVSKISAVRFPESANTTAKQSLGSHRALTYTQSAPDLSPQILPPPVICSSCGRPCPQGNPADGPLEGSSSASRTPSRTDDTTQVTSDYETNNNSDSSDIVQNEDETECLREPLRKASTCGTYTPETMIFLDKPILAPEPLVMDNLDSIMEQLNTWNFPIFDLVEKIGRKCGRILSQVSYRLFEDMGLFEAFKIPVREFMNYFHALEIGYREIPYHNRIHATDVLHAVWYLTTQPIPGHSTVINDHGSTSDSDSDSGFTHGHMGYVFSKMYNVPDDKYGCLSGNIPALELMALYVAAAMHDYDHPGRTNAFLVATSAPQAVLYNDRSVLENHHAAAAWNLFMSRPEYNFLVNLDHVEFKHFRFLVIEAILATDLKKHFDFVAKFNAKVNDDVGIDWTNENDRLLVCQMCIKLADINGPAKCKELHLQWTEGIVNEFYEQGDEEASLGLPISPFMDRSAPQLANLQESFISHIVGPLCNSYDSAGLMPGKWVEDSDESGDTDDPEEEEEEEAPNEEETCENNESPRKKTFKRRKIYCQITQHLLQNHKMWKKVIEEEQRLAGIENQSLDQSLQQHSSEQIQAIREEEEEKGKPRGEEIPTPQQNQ
Protocol: 2. Inhibition of Cardiac Phosphodiesterases
The phosphodiesterases (PDE) isoforms of canine left ventricle were separated by column ion exchange chromatography, using a minor modification of the method previously described by Alvarez et al. (Mol. Pharmacol., 1986, 29, 554-560). A Fractogel TSK DEAE 650 column was used and the PDEs were eluted using a continuous sodium acetate gradient (50 to 500 mM). The flow rate was 1.2ml/min and fractions of c.a. 8ml were collected as described by Weishaar et al. (Biochem. Pharmacol., 1986, 35, 787-800).
Four isoforms were identified • i) Fraction I or CAM-PDE (i.e. Ca⁺⁺/calmodulin-activated PDE), which hydrolyses both c-AMP and c-GMP, and presents a low Km for c-AMP over a wide range of concentration. It is activated by Ca⁺⁺/calmodulin. • ii) Fraction II or CGS-PDE (i.e. c-GMP-stimulated PDE), which hydrolyses more specifically c-GMP, and presents a high Km, for c-AMP over a wide range of concentration. It is stimulated by c-GMP. • iii) Fraction III or NCGI-PDE (i.e. not c-GMP-inhibited PDE), which hydrolyses more specifically c-AMP and presents two relatively low Km sites of affinity. It is not inhibited by c-GMP. iv) Fraction IV or CGI-PDE (i.e., c-GMP-inhibited PDE), which also hydrolyses more specifically c-AMP, and also presents two relatively low Km site of affinity. It is inhibited by c-GMP.
The inhibitory effect of the test compounds was expressed as the IC₅₀, i.e. the concentration which inhibits the activity by 50%, this value being expressed in micromoles.

O=C1NN=C(c2ccc3c(c2)C(C2CCCCC2)C(=O)N3)CS1 (stereo not drawn) [Example 12, 3-Cyclohexyl-1,3-dihydro-5-(3,6-dihydro-2-oxo-2H-1,3,4-thiadiazin-5-yl)-2H-indol-2-one]
Shift in pCa50 (ΔpCa50) [1]: 0.49

CC1SC(=O)NN=C1c1ccc2c(c1)C(C)(C)C(=O)N2Cc1ccccc1 (stereo not drawn) [Example 5, 1,3-Dihydro-5-(3,6-dihydro-6-methyl-2-oxo-2H-1,3,4-thiadiazin-5-yl)-3,3-dimethyl-1-(phenylmethyl)-2H-indol-2-one]
Shift in pCa50 (ΔpCa50) [1]: 0.38

CC1SC(=O)NN=C1c1ccc2c(c1)C(C)(C)C(=O)N2c1ccccc1 (stereo not drawn) [Example 7, 1,3-Dihydro-5-(3,6-dihydro-6-methyl-2-oxo-2H-1,3,4-thiadiazin-5-yl)-3,3-dimethyl-1-phenyl-2H-indol-2-one]
Shift in pCa50 (ΔpCa50) [1]: 0.20

1-Cyclohexylmethyl-5-(3,6-dihydro-6-methyl-2-oxo-2H-1,3,4-thiadiazin-5-yl)-1,3-dihydro-3,3-dimethyl-2H-indol-2-one [Example 9]
Max ATPase activity(%) [1]: +11%
Shift in pCa50 (ΔpCa50) [1]: 0.32

CC1SC(=O)NN=C1c1ccc2c(c1)C(C1CCCCC1)C(=O)N2 (stereo not drawn) [Example 10, 3-Cyclohexyl-1,3-dihydro-5-(3,6-dihydro-6-methyl-2-oxo-2H-1,3,4-thiadiazin-5-yl)-2H-indol-2-one]
Shift in pCa50 (ΔpCa50) [1]: 0.99

CC1SC(=O)NN=C1c1ccc2c(c1)C(C)(C)C(=O)N2C(=O)Nc1ccccc1 (stereo not drawn) [Example 2, 2,3-Dihydro-5-(3,6-dihydro-6-methyl-2-oxo-2H-1,3,4-thiadiazin-5-yl)-3,3-dimethyl-2-oxo-N-phenyl-1H-indole-1-carboxamide]
IC50 [2]: 15 µM

O=C1NN=C(c2ccc3c(c2)C(Sc2ccccc2)C(=O)N3)CS1 (stereo not drawn) [Example 11, 1,3-Dihydro-5-(3,6-dihydro-2-oxo-2H-1,3,4-thiadiazin-5-yl)-3-phenylthio-2H-indol-2-one]
Shift in pCa50 (ΔpCa50) [1]: 0.21

CC1SC(=O)NN=C1c1ccc2c(c1)C(c1ccccc1)C(=O)N2 (stereo not drawn) [Example 4, 1,3-Dihydro-5-(3,6-dihydro-6-methyl-2-oxo-2H-1,3,4-thiadiazin-5-yl)-3-phenyl-2H-indol-2-one]
Shift in pCa50 (ΔpCa50) [1]: 0.68
IC50 [2]: 3.2 µM

CCOC(=O)CN1C(=O)C(C)(C)c2cc(C3=NNC(=O)SC3C)ccc21 (stereo not drawn) [Example 3, Ethyl 2,3-dihydro-5-(3,6-dihydro-6-methyl-2-oxo-2H-1,3,4-thiadiazin-5-yl)-3,3-dimethyl-2-oxo-N-1H-indole-1-acetate]
Shift in pCa50 (ΔpCa50) [1]: 0.23
IC50 [2]: 6.7 µM

CC1SC(=O)NN=C1c1ccc2c(c1)C1(CCCC1)C(=O)N2C(=O)c1ccc(N)cc1.Cl (stereo not drawn) [Example 1, 1′-[(4-Aminophenyl)carbonyl]-5′-(3,6-dihydro-6-methyl-2-oxo-2H-1,3,4-thiadiazin-5-yl)-spiro[cyclopentane-1,3′-[3H]-indol]-2′(1′H)-one, hydrochloride]
Max ATPase activity(%) [1]: -18%
Shift in pCa50 (ΔpCa50) [1]: 0.19
IC50 [2]: 0.87 µM
